Measurements reported in patent US10508118B2, “Pyrimidopyrrole compounds, method for preparing the same, pharmaceutical compositions comprising the same and uses thereof” (Xiamen University, priority 2015, dated 2019).

Key:
Type in all cases: cell-based
[1] = target: T1, EML4-ALK-BaF3 (Homo sapiens, UniProt Q9UM73); experiment: Growth inhibition of EML4-ALK transformed BaF3 cells (MTS); settings: for IC50: EML4-ALK-BaF3 cells, 48 hours, MTS, Table 12
T1 construct: expressed in transfected cells; host or cells: Ba/F3 cells; the other entry of the earlier key: EML4 (Q9HC35, Echinoderm microtubule-associated protein-like 4)
Procedure: (§1) If compounds can inhibit the activity of ALK kinase or the activity of ALK signaling pathway, they can inhibit the growth of ALK transformed Ba/F3 cells. […] The broad-spectrum toxicity of compounds can be evaluated by determining the effect of the compounds on the growth of wild type BaF3 cells.
(§2) 1) Medium: DMEM (Dulbecco's modified eagle medium) or RPMI1640 (containing 10% fetal bovine serum, 100 μg/mL ampicillin, 100 μg/mL streptomycin).)
(§3) Reagents: MTS solution (2 mg/mL MTS (3-(4,5-dimethylthiazol-2-yl)-5-(3-carboxymethoxyphenyl)-2-(4-sulfophenyl)-2H-tetrazolium, inner salt); 100 μg/mL PES ([…])).
(§4) 3) Test of compound: Transformed Ba/F3 cells (EML4-ALK-BaF3, EML4-ALK(L1196M)-BaF3, NPM-ALK-BaF3) (2×10^4/well) were distributed into 96-well plates, with volume of cell sap of 90 μL, 10 μL of compounds in gradient concentration (the highest concentration 10 was μM, followed by 1/3 step by step dilution, a total of 8 concentrations were set, the system contained 0.1% DMSO (dimethyl sulfoxide)). The cell plates mixed with compounds were cultured in a cell incubator (37° C.; 5% CO2) for 48 hours, and the added 20 μL of MTS reaction solution, mixed and incubated in cell incubator (37° C.; 5% CO2) for 1-4 hours. The OD value at a wavelength of 490 nm was measured using eliasa (VARIOSKAN FLASH, Thermo). Three parallels were set up for each group, with a final concentration of 0.1% DMSO as negative control, and with medium without cells and compounds as blank control.
(§5) 4) Calculation of IC50 value: the semi inhibitory concentration of the compound acting on the cells was calculated using GradPad Prism 5 software according to the cell inhibitory rate measured.

[2] = target: T2, NPM-ALK-BaF3 (Homo sapiens, UniProt Q9UM73); experiment: Growth inhibition of NPM-ALK transformed BaF3 cells (MTS); settings: 48 hours, Table 12
T2 construct: expressed in transfected cells; host or cells: Ba/F3 cells; the other entry of the earlier key: NPM1 (P06748, Nucleophosmin)
Procedure: (§6) The activity of compounds against ALK kinase was evaluated by inhibiting the growth of cellular ALK kinase EML4-ALK-BaF3, EML4-ALK (L1196M)-BaF3, NPM-ALK-BaF3, and wild type BaF3 (Proc. Natl. Acad. Sci. USA., 2006, 103, 3153-8.) The growth of cellular ALK kinase EML4-ALK-BaF3, EML4-ALK(L1196M)-BaF3, and NPM-ALK-BaF3 depends on their kinase activity. If compounds can inhibit the activity of ALK kinase or the activity of ALK signaling pathway, they can inhibit the growth of ALK transformed Ba/F3 cells. […] The broad-spectrum toxicity of compounds can be evaluated by determining the effect of the compounds on the growth of wild type BaF3 cells.
as §2, §3
as §4, with “control. The inhibition rate of cell growth was calculated by the following formula: Cell inhibition rate %=1−(OD experimental group−OD blank group)/(OD negative group−OD blank group)*100%” for “control.”
as §5

[3] = target: T3, EML4-ALK (L1196M)-BaF3 (Homo sapiens, UniProt Q9UM73, L1196M); experiment: Growth inhibition of EML4-ALK (L1196M) transformed BaF3 cells (MTS); settings: 48 hours, Table 12, read-out: L1196M (IC50 nM)
T3 construct: expressed in transfected cells; host or cells: Ba/F3 cells; the other entry of the earlier key: EML4 (Q9HC35, Echinoderm microtubule-associated protein-like 4)
Procedure: as §1, §2, §3, §4, §5

[4] = test system: wild type BaF3; experiment: Growth inhibition of wild type BaF3 cells (broad-spectrum toxicity); settings: Mus musculus, BaF3, 48 h, MTS, Table 12
Procedure: as §6, §2, §3
as §4, with “control. The inhibition rate of cell growth was calculated by the following formula: Cell inhibition rate %=1−(OD experimental group−OD blank group)/(OD negative group−OD blank group)*100%” for “control.”
as §5

| SMILES | IC50 [1] [nM] | IC50 [2] [nM] | IC50 [3] [nM] | IC50 [4] [nM] | targeting selectivity ([1]; ratio of IC50 between wild-type BaF3 and ALK transformed BaF3 cells) |
| --- | --- | --- | --- | --- | --- |
| CCOc1cc(C(=O)N2CCC(N3CCN(C)CC3)CC2)ccc1Nc1nc(Nc2ccccc2SC(C)C)c2c(ccn2C)n1 [IIB-5] | ~2720 | ~1370 | ~2780 | ~2870 |  |
| COc1cc(N2CCN(C)CC2)ccc1Nc1nc(Nc2ccccc2S(C)(=O)=O)c2c(ccn2C)n1 [IIC-1] | 3530 | 5120 | ~5890 | ~8670 |  |
| COc1cc(N2CCC(N3CCN(C)CC3)CC2)ccc1Nc1nc(Nc2ccccc2S(C)(=O)=O)c2c(ccn2C)n1 [IIC-2] | 1510 | ~3460 | ~3510 | 5050 |  |
| Cn1ccc2nc(Nc3ccc(N4CCC(O)CC4)cc3)nc(Nc3ccccc3S(C)(=O)=O)c21 [IIC-3] | 8290 | 11800 | 8990 | ~10600 |  |
| Cn1ccc2nc(Nc3ccc(S(N)(=O)=O)cc3)nc(Nc3ccccc3S(C)(=O)=O)c21 [IIC-4] | > 10000 | > 10000 | 28200 | > 10000 |  |
| CN1CCN(c2ccc(Nc3nc(Nc4ccccc4S(C)(=O)=O)c4c(ccn4C)n3)cc2)CC1 [IIC-5] | ~3240 | 3780 | 4410 | ~7730 |  |
| CCOc1cc(N2CCC(O)CC2)ccc1Nc1nc(Nc2ccccc2S(C)(=O)=O)c2c(ccn2C)n1 [IIC-6] | > 10000 | > 10000 | > 10000 | > 10000 |  |
| COc1cc(N2CCN(C)CC2)ccc1Nc1nc(Nc2ccccc2S(=O)(=O)C(C)C)c2c(ccn2C)n1 [IID-1] | 546 | 2260 | ~2960 | ~8180 |  |
| COc1cc(N2CCC(N3CCN(C)CC3)CC2)ccc1Nc1nc(Nc2ccccc2S(=O)(=O)C(C)C)c2c(ccn2C)n1 [IID-2] | 330 | 829 | 391 | 2910 | good targeting selectivity |
| CC(C)S(=O)(=O)c1ccccc1Nc1nc(Nc2ccc(N3CCC(O)CC3)cc2)nc2ccn(C)c12 [IID-3] | 2160 | 6990 | 6650 | > 10000 |  |
| CC(C)S(=O)(=O)c1ccccc1Nc1nc(Nc2ccc(S(N)(=O)=O)cc2)nc2ccn(C)c12 [IID-4] | ~3290 | ~6350 | ~6440 | 7540 |  |
| CC(C)S(=O)(=O)c1ccccc1Nc1nc(Nc2ccc(N3CCN(C)CC3)cc2)nc2ccn(C)c12 [IID-5] | ~1130 | ~2580 | ~1120 | ~7940 |  |
| CCOc1cc(N2CCC(O)CC2)ccc1Nc1nc(Nc2ccccc2S(=O)(=O)C(C)C)c2c(ccn2C)n1 [IID-6] | 1600 | ~3130 | ~3000 | > 10000 |  |
| CCOc1cc(C(=O)N2CCC(N3CCN(C)CC3)CC2)ccc1Nc1nc(Nc2ccccc2S(=O)(=O)C(C)C)c2c(ccn2C)n1 [IID-7] | 783 | ~982 | ~2780 | ~2580 |  |
| Cc1cc(Nc2nc(Nc3ccccc3S(=O)(=O)C(C)C)c3c(ccn3C)n2)c(OC(C)C)cc1C1CCN(C)CC1 [IID-8] | 1760 | ~3460 | 4770 | ~8380 |  |
| COc1cc(C2CCN(C)CC2)c(C)cc1Nc1nc(Nc2ccccc2S(=O)(=O)C(C)C)c2c(ccn2C)n1 [IID-9] | 2240 | 4740 | ~2880 | ~8300 |  |
| COC(=O)c1ccccc1Nc1nc(Nc2ccc(N3CCN(C)CC3)cc2OC)nc2ccn(C)c12 [IIG-1] | 2370 | 4870 | 3440 | 5170 |  |
| COC(=O)c1ccccc1Nc1nc(Nc2ccc(N3CCC(N4CCN(C)CC4)CC3)cc2OC)nc2ccn(C)c12 [IIG-2] | ~3880 | 4890 | 3730 | ~7940 |  |
| COC(=O)c1ccccc1Nc1nc(Nc2ccc(N3CCC(O)CC3)cc2)nc2ccn(C)c12 [IIG-3] | 4260 | 3180 | 2790 | 5040 |  |
| COC(=O)c1ccccc1Nc1nc(Nc2ccc(C(=O)N3CCC(N4CCN(C)CC4)CC3)cc2OC)nc2ccn(C)c12 [IIG-4] | ~1330 | 4210 | 3950 | 4870 |  |
| COC(=O)c1cccc(Nc2nc(Nc3ccc(N4CCN(C)CC4)cc3OC)nc3ccn(C)c23)c1 [IIH-1] | 1620 | 1750 | 1840 | 4940 |  |
| COC(=O)c1cccc(Nc2nc(Nc3ccc(N4CCC(O)CC4)cc3)nc3ccn(C)c23)c1 [IIH-2] | 1970 | 4470 | 1810 | 2830 |  |
| COc1cc(N2CCN(C)CC2)ccc1Nc1nc(NCc2ccccc2SC)c2c(ccn2C)n1 [III-1] | ~1360 | ~2740 | 1690 | ~2780 |  |
| CSc1ccccc1CNc1nc(Nc2ccc(N3CCC(O)CC3)cc2)nc2ccn(C)c12 [III-2] | > 10000 | > 10000 | > 10000 | > 10000 |  |
| CSc1ccccc1CNc1nc(Nc2ccc(S(N)(=O)=O)cc2)nc2ccn(C)c12 [III-3] | 3200 | 3710 | 4000 | ~3340 |  |
| COc1cc(N2CCN(C)CC2)ccc1Nc1nc(NCc2ccccc2SC(C)C)c2c(ccn2C)n1 [IIJ-1] | ~865 | 627 | 544 | ~911 |  |
| CC(C)Sc1ccccc1CNc1nc(Nc2ccc(N3CCC(O)CC3)cc2)nc2ccn(C)c12 [IIJ-2] | 1710 | 1610 | 1610 | ~2860 |  |
